{"source": "patent US20250032524A1", "about": "“BROAD SPECTRUM AMINOGLYCOSIDES AND USES THEREOF” (REVAGENIX, INC., priority 2022, published 2025)", "assay_type_in_all_cases": "cell-based", "key": {"A. baumannii": {"system": "A. baumannii", "assay": "MIC broth microdilution (CLSI)", "conditions": "Acinetobacter baumannii", "protocol": "(§1) Minimum inhibitory concentrations for representative example compounds herein were determined by a broth microdilution method in accordance with the Clinical and Laboratory Standards Institute (CLSI) guidelines. In brief, organism suspensions were adjusted to a 0.5 McFarland standard to yield a final inoculum between 3×10^5 and 7×10^5 colony-forming units (CFU)/mL. The inoculum was prepared by suspension of a colony from an agar plate that was prepared the previous day. Compound dilutions and inoculum were prepared in sterile, cation adjusted Mueller-Hinton Broth (Beckton Dickinson).\n(§2) Bacteria were suspended in sterile saline and added to each assay plate to obtain a final concentration of 5×10^5 CFU/mL. An inoculum volume of 100 μL was added to wells containing 100 μL of broth with 2-fold serial dilutions of the test compound. All inoculated microdilution trays were incubated in ambient air at 35° C. for 18-24 hours. Following incubation, the lowest concentration of the compound that prevented visible growth (OD 600 nm<0.05) is recorded was the MIC. […] Performance of the assay was monitored by the use of laboratory quality-control strains and a standard compound with a defined MIC spectrum (neomycin), in accordance with CLSI guidelines."}, "E. cloacae": {"system": "E. cloacae", "assay": "MIC broth microdilution (CLSI)", "conditions": "Enterobacter cloacae; strain AECL1089, MDR Clinical isolate (CDC CRE panel), CDC AR Bank 0154", "protocol": "as §1, §2"}, "E. coli": {"system": "E. coli", "assay": "MIC broth microdilution (CLSI)", "conditions": "Escherichia coli", "protocol": "as §1, §2"}, "K. aerogenes": {"system": "K. aerogenes", "assay": "MIC broth microdilution (CLSI)", "conditions": "Klebsiella aerogenes; strain AEAE1042, MDR Clinical isolate (CDC CRE panel), CDC AR Bank 0161", "protocol": "as §1, §2"}, "K. pneumoniae": {"system": "K. pneumoniae", "assay": "MIC broth microdilution (CLSI)", "protocol": "as §1, §2"}, "P. aeruginosa": {"system": "P. aeruginosa", "assay": "MIC broth microdilution (CLSI)", "conditions": "Pseudomonas aeruginosa", "protocol": "as §1, §2"}, "[1]": {"system": "clinical isolates of multi-drug resistant bacterial pathogens including A. baumannii, MRSA, P. aeruginosa, and CRE", "assay": "MIC secondary panel, overall statement", "conditions": "read-out: minimum inhibitory concentration (MIC) values", "protocol": "as §1, §2\nSeveral compounds of the disclosure (Compounds 1, 2, 3, and 6) were further evaluated against a secondary panel of clinical isolates of multi-drug resistant bacterial pathogens including A. baumannii, methicillin-resistant Staphylococcus aureus (MRSA), P. aeruginosa, and carbapenem-resistant Enterobacteriaceae (CRE)."}}, "note": "Where two headings read alike, the source gives them in different places.", "data": [{"compound": "C[C@H](N)[C@@H]1CC[C@@H](N)[C@@H](O[C@@H]2[C@@H](N)[C@H](O)[C@@H](NC(=O)[C@@H](O)CCN)[C@H](O)[C@H]2O[C@@H]2O[C@H](CO)[C@@H](O[C@H]3O[C@@H](CN)[C@@H](O)[C@H](O)[C@H]3N)[C@H]2O)O1", "note": "[Compound 6, (S)-4-Amino-N-((1R,2S,3S,4R,5R,6S)-3-Amino-4-(((2R,3R,6S)-3-Amino-6-((S)-1-Aminoethyl)Tetrahydro-2H-Pyran-2-Yl)Oxy)-5-(((2S,3R,4S,5R)-4-(((2R,3R,4R,5S,6S)-3-Amino-6-(Aminomethyl)-4,5-Dihydroxytetrahydro-2H-Pyran-2-Yl)Oxy)-3-Hydroxy-5-(Hydroxymethyl)Tetrahydrofuran-2-Yl)Oxy)-2,6-Dihydroxycyclohexyl)-2-Hydroxybutanamide]", "values": [{"measurement": "MIC", "setting": "A. baumannii; read-out: Activity (MIC), strain NABA0007, ΔadeJK efflux", "value": "< 16", "unit": "µg/mL"}, {"measurement": "MIC", "setting": "A. baumannii; read-out: Activity (MIC), strain NABA1427, MDR Clinical isolate", "value": "< 16", "unit": "µg/mL"}, {"measurement": "MIC", "setting": "A. baumannii; read-out: Activity (MIC), strain NABA1433, MDR Clinical isolate", "value": "< 16", "unit": "µg/mL"}, {"measurement": "MIC", "setting": "A. baumannii; read-out: Activity (MIC), strain NABA1434, MDR Clinical isolate", "value": "< 16", "unit": "µg/mL"}, {"measurement": "MIC", "setting": "A. baumannii; read-out: Activity (MIC), strain NABA1436, MDR Clinical isolate", "value": "< 16", "unit": "µg/mL"}, {"measurement": "MIC", "setting": "A. baumannii; read-out: Activity (MIC), strain NABA1437, MDR Clinical isolate", "value": "< 16", "unit": "µg/mL"}, {"measurement": "MIC", "setting": "A. baumannii; read-out: Activity (MIC), strain NABA1438, MDR Clinical isolate", "value": "< 16", "unit": "µg/mL"}, {"measurement": "MIC", "setting": "A. baumannii; read-out: Activity (MIC), strain NABA1439, MDR Clinical isolate", "value": "< 16", "unit": "µg/mL"}, {"measurement": "MIC", "setting": "A. baumannii; read-out: Activity (MIC), strain NABA1448, MDR Clinical isolate", "value": "< 16", "unit": "µg/mL"}, {"measurement": "MIC", "setting": "A. baumannii; read-out: Activity (MIC), strain NABA1449, MDR Clinical isolate", "value": "< 16", "unit": "µg/mL"}, {"measurement": "MIC", "setting": "A. baumannii; read-out: Activity (MIC), strain NABA1450, MDR Clinical isolate", "value": "< 16", "unit": "µg/mL"}, {"measurement": "MIC", "setting": "A. baumannii; strain NABA0006, WT parent, read-out: Activity (MIC)", "value": "< 16", "unit": "µg/mL"}, {"measurement": "MIC", "setting": "A. baumannii; strain NABA0020, AME negative strain, read-out: Activity (MIC)", "value": "< 16", "unit": "µg/mL"}, {"measurement": "MIC", "setting": "E. cloacae", "value": "< 16", "unit": "µg/mL"}, {"measurement": "MIC", "setting": "E. coli; read-out: Activity (MIC), strain AECO1225, MDR Clinical isolate (CDC CRE panel), CDC AR Bank 0118", "value": "< 16", "unit": "µg/mL"}, {"measurement": "MIC", "setting": "E. coli; read-out: Activity (MIC), strain AECO1226, MDR Clinical isolate (CDC CRE panel), CDC AR Bank 0119", "value": "< 16", "unit": "µg/mL"}, {"measurement": "MIC", "setting": "E. coli; read-out: Activity (MIC), strain AECO1227, MDR Clinical isolate (CDC CRE panel), CDC AR Bank 0128", "value": "< 16", "unit": "µg/mL"}, {"measurement": "MIC", "setting": "E. coli; read-out: Activity (MIC), strain NECO0003, ΔtolC", "value": "< 16", "unit": "µg/mL"}, {"measurement": "MIC", "setting": "E. coli; read-out: Activity (MIC), strain NECO0245, ArmA", "value": "< 16", "unit": "µg/mL"}, {"measurement": "MIC", "setting": "E. coli; strain NECO0001, WT QC, read-out: Activity (MIC)", "value": "< 16", "unit": "µg/mL"}, {"measurement": "MIC", "setting": "E. coli; strain NECO0002, WT, read-out: Activity (MIC)", "value": "< 16", "unit": "µg/mL"}, {"measurement": "MIC", "setting": "E. coli; strain NECO0243, empty vector, read-out: Activity (MIC)", "value": "< 16", "unit": "µg/mL"}, {"measurement": "MIC", "setting": "E. coli; strain NECO0244, AAC(6')-Ib, read-out: Activity (MIC)", "value": "< 16", "unit": "µg/mL"}, {"measurement": "MIC", "setting": "E. coli; strain NECO0289, APH(3')-Ia, read-out: Activity (MIC)", "value": "< 16", "unit": "µg/mL"}, {"measurement": "MIC", "setting": "E. coli; strain NECO0302, AAC(3)-IIa, read-out: Activity (MIC)", "value": "< 16", "unit": "µg/mL"}, {"measurement": "MIC", "setting": "E. coli; strain NECO0350, AAC(2')-I, read-out: Activity (MIC)", "value": "< 16", "unit": "µg/mL"}, {"measurement": "MIC", "setting": "E. coli; strain NECO0359, ANT(4')-Ia, read-out: Activity (MIC)", "value": "< 16", "unit": "µg/mL"}, {"measurement": "MIC", "setting": "K. aerogenes", "value": "< 16", "unit": "µg/mL"}, {"measurement": "MIC", "setting": "K. pneumoniae; Klebsiella pneumoniae, strain AKPN1246, MDR Clinical isolate (CDC CRE panel), CDC AR Bank 0139", "value": "< 16", "unit": "µg/mL"}, {"measurement": "Activity (MIC)", "setting": "K. pneumoniae; strain AKPN1250, MDR Clinical isolate (CDC CRE panel), CDC AR Bank 0143", "value": "+ (MIC threshold for positive activity (+) is ≤16 μg/mL)"}, {"measurement": "Activity (MIC)", "setting": "K. pneumoniae; strain AKPN1253, MDR Clinical isolate (CDC CRE panel), CDC AR Bank 0148", "value": "+ (MIC threshold for positive activity (+) is ≤16 μg/mL)"}, {"measurement": "Activity (MIC)", "setting": "K. pneumoniae; strain AKPN1255, MDR Clinical isolate (CDC CRE panel), CDC AR Bank 0153", "value": "+ (MIC threshold for positive activity (+) is ≤16 μg/mL)"}, {"measurement": "MIC", "setting": "P. aeruginosa; read-out: Activity (MIC), strain NPAE0006, Efflux KO, Aph(3')-IIb", "value": "< 16", "unit": "µg/mL"}, {"measurement": "MIC", "setting": "P. aeruginosa; read-out: Activity (MIC), strain NPAE0010, MexXY over-expressed, Aph(3')-IIb", "value": "< 16", "unit": "µg/mL"}, {"measurement": "MIC", "setting": "P. aeruginosa; read-out: Activity (MIC), strain NPAE1288, MDR Clinical isolate", "value": "< 16", "unit": "µg/mL"}, {"measurement": "MIC", "setting": "P. aeruginosa; read-out: Activity (MIC), strain NPAE1293, MDR Clinical isolate", "value": "< 16", "unit": "µg/mL"}, {"measurement": "MIC", "setting": "P. aeruginosa; read-out: Activity (MIC), strain NPAE1299, MDR Clinical isolate", "value": "< 16", "unit": "µg/mL"}, {"measurement": "MIC", "setting": "P. aeruginosa; read-out: Activity (MIC), strain NPAE1302, MDR Clinical isolate", "value": "< 16", "unit": "µg/mL"}, {"measurement": "MIC", "setting": "P. aeruginosa; read-out: Activity (MIC), strain NPAE1303, MDR Clinical isolate", "value": "< 16", "unit": "µg/mL"}, {"measurement": "MIC", "setting": "P. aeruginosa; read-out: Activity (MIC), strain NPAE1308, MDR Clinical isolate", "value": "> 16", "unit": "µg/mL"}, {"measurement": "MIC", "setting": "P. aeruginosa; read-out: Activity (MIC), strain NPAE1310, MDR Clinical isolate", "value": "< 16", "unit": "µg/mL"}, {"measurement": "MIC", "setting": "P. aeruginosa; read-out: Activity (MIC), strain NPAE1313, MDR Clinical isolate", "value": "< 16", "unit": "µg/mL"}, {"measurement": "MIC", "setting": "P. aeruginosa; read-out: Activity (MIC), strain NPAE1316, MDR Clinical isolate", "value": "< 16", "unit": "µg/mL"}, {"measurement": "MIC", "setting": "P. aeruginosa; read-out: Activity (MIC), strain NPAE1323, MDR Clinical isolate", "value": "< 16", "unit": "µg/mL"}, {"measurement": "MIC", "setting": "P. aeruginosa; strain NPAE0001, WT Aph(3')-IIb, QC, read-out: Activity (MIC)", "value": "< 16", "unit": "µg/mL"}, {"measurement": "MIC", "setting": "P. aeruginosa; strain NPAE0002, WT Aph(3')-IIb, read-out: Activity (MIC)", "value": "< 16", "unit": "µg/mL"}, {"measurement": "MIC", "setting": "P. aeruginosa; strain NPAE0359, aph(3')-IIb KO (tetR), read-out: Activity (MIC)", "value": "< 16", "unit": "µg/mL"}, {"measurement": "MIC", "setting": "[1]", "value": "≤ 16", "unit": "µg/mL"}]}]}
